Experimental data from PubChem BioAssay AID256 (DTP/NCI, 2004).
Toxic doses and inconclusive results are not listed.

Tested on: CD2F1 mice, L1210 leukemia ip, survival T/C
Assay: NCI In Vivo Anticancer Drug Screen. Data for tumor model L1210 Leukemia (intraperitoneal) in CD2F1 (CDF1) mice
Conditions: endpoint: mean survival time, higher = longer survival
How it was run: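 Tumor-bearing mice (transplanted tumor) were split into treated and vehicle control groups, and the measured endpoint of each treated group was divided by that of its vehicle controls.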

[1] = dose: 100.0 mg/kg/injection, schedule: Q04DX003 (ip), vehicle: saline with Tween-80
[2] = dose: 200.0 mg/kg/injection, schedule: Q04DX003 (ip), vehicle: saline with Tween-80
[3] = dose: 100.0 mg/kg/injection, schedule: Q01DX009 (ip), vehicle: saline with Tween-80
[4] = dose: 400.0 mg/kg/injection, schedule: Q01DX009 (ip), vehicle: saline with Tween-80
[5] = dose: 100.0 mg/kg/injection, schedule: Q04DX002 (ip), vehicle: saline with Tween-80
[6] = dose: 200.0 mg/kg/injection, schedule: Q04DX002 (ip), vehicle: saline with Tween-80
[7] = dose: 400.0 mg/kg/injection, schedule: Q04DX002 (ip), vehicle: saline with Tween-80

CCOC(=O)Nc1cc(Cl)c2nnn(C3OC(CO)C(O)C3O)c2n1 (stereo not given)
T/C (dose: 12.5 mg/kg/injection, schedule: Q01DX005 (ip), vehicle: water): 90 % of control
T/C (dose: 25.0 mg/kg/injection, schedule: Q01DX005 (ip), vehicle: water): 94 % of control
T/C (dose: 50.0 mg/kg/injection, schedule: Q01DX005 (ip), vehicle: water): 86 % of control
T/C (dose: 100.0 mg/kg/injection, schedule: Q01DX005 (ip), vehicle: water): 96 % of control
T/C (dose: 200.0 mg/kg/injection, schedule: Q01DX005 (ip), vehicle: water): 90 % of control

CC(=O)Nc1ccc(S(=O)(=O)N=C(N)N)cc1
T/C (dose: 75.0 mg/kg/injection, schedule: Q04DX002 (ip), vehicle: saline): 114 % of control
T/C (dose: 150.0 mg/kg/injection, schedule: Q04DX002 (ip), vehicle: saline): 100 % of control
T/C (dose: 300.0 mg/kg/injection, schedule: Q04DX002 (ip), vehicle: saline): 91 % of control

Nc1cccc2[nH]c(=O)c3ccccc3c12
T/C (dose: 100.0 mg/kg/injection, schedule: Q01DX001 (ip), vehicle: carboxymethylcellulose (CMC)): 100 % of control
T/C (dose: 200.0 mg/kg/injection, schedule: Q01DX001 (ip), vehicle: carboxymethylcellulose (CMC)): 97 % of control
T/C (dose: 400.0 mg/kg/injection, schedule: Q01DX001 (ip), vehicle: carboxymethylcellulose (CMC)): 100 % of control

NNC(=O)c1ccc(Cl)cc1Nc1cccc(Cl)c1
T/C [1]: 112 % of control
T/C [2]: 89 % of control

CC(C)C(Br)C(=O)NCC(=O)O (stereo not given)
T/C [3]: 103 % of control
T/C (dose: 200.0 mg/kg/injection, schedule: Q01DX009 (ip), vehicle: saline with Tween-80): 97 % of control
T/C [4]: 98 % of control

COc1cccc2c1C(=O)c1c(O)c3c(c(O)c1C2=O)C[C@@](O)(C(C)O)C[C@@H]3OC1CC(N)C(O)C(C)O1 (stereo not given in full)
T/C (dose: 0.65 mg/kg/injection, schedule: Q01DX009 (ip), vehicle: saline): 112 % of control
T/C (dose: 1.08 mg/kg/injection, schedule: Q01DX009 (ip), vehicle: saline): 113 % of control
T/C (dose: 3.0 mg/kg/injection, schedule: Q04DX003 (ip), vehicle: saline): 120 % of control
T/C (dose: 13.3 mg/kg/injection, schedule: Q01DX009 (ip), vehicle: saline): 96 % of control

CCCCCCCCCCCCCCCCOCCOCCOCCOCCOCCCCCCCCCCCCCCCC
T/C [5]: 94 % of control
T/C [6]: 94 % of control
T/C [7]: 98 % of control

CC(=O)OC1CSC(C(C)(C)C)SC1 (stereo not given)
T/C (dose: 12.5 mg/kg/injection, schedule: Q04DX002 (ip), vehicle: saline with Tween-80): 102 % of control
T/C (dose: 25.0 mg/kg/injection, schedule: Q04DX002 (ip), vehicle: saline with Tween-80): 102 % of control
T/C (dose: 50.0 mg/kg/injection, schedule: Q04DX002 (ip), vehicle: saline with Tween-80): 108 % of control

CN(C)[C@@H]1C(=O)C(C(=O)NCNc2nc3n[nH]nc3c(=O)[nH]2)=C(O)[C@@]2(O)C(=O)C3=C(O)c4c(O)cccc4[C@@](C)(O)[C@H]3C[C@@H]12
T/C (dose: 50.0 mg/kg/injection, schedule: Q01DX009 (ip), vehicle: saline with Tween-80): 117 % of control
T/C [3]: 123 % of control
T/C [4]: 94 % of control

COc1cccc2c1C(=O)c1c(O)c3c(c(O)c1C2=O)C[C@@](O)(C(=O)COC(=O)Cc1ccccc1)C[C@@H]3OC1CC(N)C(O)C(C)O1 (stereo not given in full)
T/C (dose: 0.5 mg/kg/injection, schedule: Q01DX009 (ip), vehicle: saline with Tween-80): 123 % of control
T/C (dose: 1.32 mg/kg/injection, schedule: Q01DX009 (ip), vehicle: saline): 118 % of control
T/C (dose: 2.0 mg/kg/injection, schedule: Q01DX009 (ip), vehicle: saline): 114 % of control
T/C (dose: 3.0 mg/kg/injection, schedule: Q01DX009 (ip), vehicle: saline): 117 % of control
T/C (dose: 8.0 mg/kg/injection, schedule: Q01DX009 (ip), vehicle: saline with Tween-80): 96 % of control
T/C (dose: 10.0 mg/kg/injection, schedule: Q04DX003 (ip), vehicle: saline with Tween-80): 158 % of control
T/C (dose: 20.0 mg/kg/injection, schedule: Q01DX001 (ip), vehicle: saline with Tween-80): 107 % of control
T/C (dose: 20.0 mg/kg/injection, schedule: Q04DX003 (ip), vehicle: saline with Tween-80): 102 % of control

CC(C)(C)OC(=O)NC(Cc1ccc(OCc2ccccc2)cc1)C(=O)O (stereo not given)
T/C [1]: 95 % of control
T/C [2]: 101 % of control

O=C1C(C2CC3c4[nH]c5ccccc5c4CCN3C2=O)CC2c3[nH]c4ccccc4c3CCN12 (stereo not given)
T/C [5]: 93 % of control
T/C [6]: 93 % of control
T/C [7]: 93 % of control

Nc1ncnc(N)c1NC(=O)c1cccc(OCc2ccccc2)c1
T/C [1]: 100 % of control
T/C [2]: 91 % of control
T/C (dose: 400.0 mg/kg/injection, schedule: Q04DX003 (ip), vehicle: saline with Tween-80): 94 % of control
